Assay results published in EP4800012A1, “COMPOUND ACTING AS PARP7 INHIBITOR” (Dovetree Medicines Unus, Inc., priority 2023, dated 2025).

Legend:
PARP7 [1] = molecular target: T1, PARP7 (Homo sapiens, UniProt Q7Z3E1); assay: PARP7 TR-FRET binding inhibition (displacement of probe RBN011147); conditions: TR-FRET, Biotin-labeled probe RBN011147; read-out: PARP7 binding inhibition IC50
T1 construct: purchased BPS 80527
T1 sequence (Q7Z3E1 1-657): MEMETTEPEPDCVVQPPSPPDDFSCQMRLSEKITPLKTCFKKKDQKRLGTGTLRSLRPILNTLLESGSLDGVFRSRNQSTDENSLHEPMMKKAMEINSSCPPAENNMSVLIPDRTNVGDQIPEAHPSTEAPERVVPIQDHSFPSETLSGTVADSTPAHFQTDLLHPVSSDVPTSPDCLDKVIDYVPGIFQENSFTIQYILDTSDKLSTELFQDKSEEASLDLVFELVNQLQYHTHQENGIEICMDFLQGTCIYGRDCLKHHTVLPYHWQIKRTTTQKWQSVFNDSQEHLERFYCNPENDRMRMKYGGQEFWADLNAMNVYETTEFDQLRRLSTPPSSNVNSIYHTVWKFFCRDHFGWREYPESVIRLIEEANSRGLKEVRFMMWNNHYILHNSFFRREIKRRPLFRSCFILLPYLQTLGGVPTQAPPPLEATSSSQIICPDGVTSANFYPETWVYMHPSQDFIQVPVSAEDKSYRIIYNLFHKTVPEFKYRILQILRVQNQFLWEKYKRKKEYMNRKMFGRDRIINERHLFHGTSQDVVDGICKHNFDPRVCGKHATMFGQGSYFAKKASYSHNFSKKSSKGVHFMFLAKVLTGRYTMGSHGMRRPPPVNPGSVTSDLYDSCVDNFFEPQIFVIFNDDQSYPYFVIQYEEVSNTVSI
Experimental: The ability of the compound to substitute the probe RBN011147 (Wigle et al., 2020, Cell Chemical Biology 27, 877-887) was tested by a TR-FRET method, and IC50 was calculated to evaluate the binding ability of the compound to PARP7. […]

NCI-H1373 cells = assay: Inhibition on NCI-H1373 cell proliferation (Cell-Titer-Glo); format: cell-based; conditions: Homo sapiens, 144 h; NCI-H1373 cells, incubation for 6 days, Cell-Titer-Glo; read-out: NCI-H1373 cell proliferation inhibition IC50
Experimental: The inhibitory effect of the compound on PARP7 was evaluated by testing the inhibitory effect of the compound on NCI-H1373 cell proliferation.
NCI-H1373 cells (ATCC, CRL-5866) were cultured in a complete medium, namely, a RPMI-1640 medium (Gibco, 22400089) containing 10% fetal bovine serum (Corning, 35-081-CV).
Negative control wells and positive control wells were added with 50 nL DMSO (Sigma, D2650), respectively.
In "Day 0" detection plate, NCI-H1373 cells were seeded at a density of 600 cells/well (50 µL) in a complete medium into the Day 0 test wells of a 384-well detection plate (Grenier, 781091). Then, 25 µL of Cell-Titer-Glo reagent (Promega, G7573) was added to each well, followed by centrifugation at 1000 rpm at room temperature for 1 minute and incubation at room temperature under shaded conditions for 10 min. Chemiluminescence signals were collected using an Envision (Perkin Elmer, EnVision 2105) to obtain the average value of the Day 0 test values.
In "compound detection plate", NCI-H1373 cells were seeded at a density of 600 cells/well (50 µL) in a complete medium into the negative control wells and the compound detection wells of a 384-well detection plate (Grenier, 781091), and 50 µL of cell culture medium was added to the positive control wells, followed by centrifugation at 1000 rpm at room temperature for 1 minute and placing in a cell incubator at 37°C, 5% CO2 for incubation for 6 days. […] Chemiluminescence signals were collected using an Envision (Perkin Elmer, EnVision 2105). The test values for each compound well, negative control well, and positive control well were obtained.
The proliferation inhibition ratio formula is as follows: [formula]
The average value of the negative control = the average value of the Day 6 test values of each negative control well minus the average value of the Day 0 test values
The average value of the positive control = the average value of the Day 6 test values of each positive control well
The average value of the compound test = (the Day 6 test value of compound test well 1 + the Day 6 test value of compound test well 2)/2 - the average value of the Day 0 test values

PARP7 [2] = molecular target: T1, PARP7; assay: Inhibition of the compound on PARP7 protein activity (ADP-ribosylation, chemiluminescence); format: biochemical; conditions: Histone H1 coated plate, Biotin-Labeled NAD+, 2 h at room temperature, chemiluminescence; read-out: PARP7 activity inhibition IC50

IC50 (PARP7 [1]) | IC50 (NCI-H1373 cells) | IC50 (PARP7 [2]) | SMILES
< 10 nM | 1000 to 3000 nM | < 3 nM | CC(CCCNC(=O)c1ccc(-c2ncc(C(F)(F)F)cn2)cc1O)Nc1cn[nH]c(=O)c1C(F)(F)F (stereo not drawn) [Example 1]
< 10 nM | 300 to 1000 nM | < 3 nM | CC(CCCNC(=O)c1ccc(-c2ncc(C(F)(F)F)cn2)cc1F)Nc1cn[nH]c(=O)c1C(F)(F)F (stereo not drawn) [Example 2]
< 10 nM | 300 to 1000 nM | < 3 nM | CC(CCCNC(=O)c1ccc(-c2ncc(C(F)(F)F)cn2)cc1)Nc1cn[nH]c(=O)c1C(F)(F)F (stereo not drawn) [Example 3]
10 to 30 nM | > 3000 nM | < 3 nM | CC(CCCNC(=O)c1cccc2c1CCN2c1ncc(C(F)(F)F)cn1)Nc1cn[nH]c(=O)c1C(F)(F)F (stereo not drawn) [Example 5]
30 to 100 nM | > 3000 nM | – | CC(CCNC(=O)c1n[nH]c2cc(-c3ncc(C(F)(F)F)cn3)ccc12)Nc1cn[nH]c(=O)c1C(F)(F)F (stereo not drawn) [Example 7]
10 to 30 nM | > 3000 nM | – | CC(CCNC(=O)c1n[nH]c2c1CCN(c1ncc(C(F)(F)F)cn1)C2)Nc1cn[nH]c(=O)c1C(F)(F)F (stereo not drawn) [Example 8]
10 to 30 nM | – | 3 to 10 nM | O=C(CCc1c[nH]c(=O)c2ccccc12)Nc1ccc(-c2ncc(C(F)(F)F)cn2)cc1 [Example 12]
10 to 30 nM | > 3000 nM | – | Cc1cnc(-c2cnc(C(=O)NCCCC(C)Nc3cn[nH]c(=O)c3C(F)(F)F)cn2)s1 (stereo not drawn) [Example 24]
> 100 nM | – | 30 to 100 nM | Cc1cc(NC(C)CCCN(C)C(=O)c2ccc(-c3ncc(C(F)(F)F)cn3)cc2O)c(C#N)c(=O)[nH]1 (stereo not drawn) [Example 33]
> 100 nM | – | 30 to 100 nM | CC(CCCN(C)C(=O)c1cnc(N2CCOCC2)cn1)Nc1cn[nH]c(=O)c1C(F)(F)F (stereo not drawn) [Example 36]
> 100 nM | – | > 100 nM | CC(CCCN(C)C(=O)c1cnc(N2CCN(C3CC3)CC2)cn1)Nc1cn[nH]c(=O)c1C(F)(F)F (stereo not drawn) [Example 37]
> 100 nM | – | 30 to 100 nM | Cc1cc(NCCCC(C)NC(=O)c2cnc(-c3ncc(C(F)(F)F)cn3)cn2)c(C#N)c(=O)[nH]1 (stereo not drawn) [Example 49]
> 100 nM | – | > 100 nM | CC(CCCNC(=O)c1ccc(-c2ncc(C(F)(F)F)s2)cc1F)Nc1cc[nH]c(=O)c1C#N (stereo not drawn) [Example 71]
< 10 nM | < 300 nM | – | CC(CCCNC(=O)c1ccc(-c2cc(C(F)(F)F)sn2)cc1)Nc1cn[nH]c(=O)c1C(F)(F)F (stereo not drawn) [Example 83]
> 100 nM | – | – | O=C(NCC1CC(Nc2cn[nH]c(=O)c2C(F)(F)F)C1)c1ccc(-c2ncc(C(F)(F)F)s2)cc1 (stereo not drawn) [Example 129]
> 100 nM | – | – | O=C(NCCC1CC(OC2CC2)CN1c1cn[nH]c(=O)c1C(F)(F)F)c1ccc(-c2ncc(C(F)(F)F)s2)cn1 (stereo not drawn) [Example 138]
> 100 nM | – | – | CC(CC1CN(C(=O)c2ccc(-n3cc(C(F)(F)F)cn3)cc2)C1)Nc1cn[nH]c(=O)c1C(F)(F)F (stereo not drawn) [Example 218]
> 100 nM | – | – | O=C(c1ccc(-c2ncc(C(F)(F)F)s2)cc1)N1CC2(CC(Nc3cn[nH]c(=O)c3C(F)(F)F)C2)C1 [Example 219]
< 10 nM | < 300 nM | – | O=C(NCCC[C@@H](Nc1cn[nH]c(=O)c1C(F)(F)F)C(=O)N1CCC2(CC2)C1)c1ccc(-c2ncc(C(F)(F)F)s2)cc1 [Example 220]
< 10 nM | < 300 nM | – | C[C@@H]1CCN(C(=O)[C@@H](CCCNC(=O)c2ccc(-c3ncc(C(F)(F)F)s3)cc2)Nc2cn[nH]c(=O)c2C(F)(F)F)C1 [Example 225]

IC50 (PARP7 [1]) | IC50 (NCI-H1373 cells) | IC50 (PARP7 [2]) | SMILES
> 100 nM | – | – | O=C(NCC1CC(Nc2cn[nH]c(=O)c2C(F)(F)F)C1)c1ccc(-c2ncc(C(F)(F)F)cn2)cc1 (stereo not drawn) [Example 226]
< 10 nM | < 300 nM | – | CC1(NC(=O)[C@@H](CCCNC(=O)c2ccc(-c3ncc(C(F)(F)F)s3)cc2)Nc2cn[nH]c(=O)c2C(F)(F)F)CCOCC1 [Example 227]
< 10 nM | 300 to 1000 nM | – | O=C(NCCC[C@@H](Nc1cn[nH]c(=O)c1C(F)(F)F)C(=O)Nc1cccnc1)c1ccc(-c2ncc(C(F)(F)F)s2)cc1 [Example 234]
10 to 30 nM | 300 to 1000 nM | – | O=C(NCCC[C@@H](Nc1cn[nH]c(=O)c1C(F)(F)F)C(=O)N1CCSCC1)c1ccc(-c2ncc(C(F)(F)F)s2)cc1 [Example 236]
10 to 30 nM | > 3000 nM | – | C[C@H]1CCN1C(=O)[C@@H](CCCNC(=O)c1ccc(-c2ncc(C(F)(F)F)s2)cc1)Nc1cn[nH]c(=O)c1C(F)(F)F [Example 240]
30 to 100 nM | > 3000 nM | – | Cc1c(-c2cnc(C(F)(F)F)s2)ncn(CCCC(C)Nc2cn[nH]c(=O)c2C(F)(F)F)c1=O (stereo not drawn) [Example 248]
30 to 100 nM | > 3000 nM | – | NC(=O)c1cccc2cn(CCCNC(=O)c3ncc(-c4ncc(C(F)(F)F)s4)cc3F)nc12 [Example 249]
10 to 30 nM | > 3000 nM | – | CC(CCCn1ccc2cc(-c3ncc(C(F)(F)F)cn3)cnc2c1=O)Nc1cn[nH]c(=O)c1C(F)(F)F (stereo not drawn) [Example 250]
> 100 nM | > 3000 nM | – | CC(COCc1cc(-c2cnc(C(F)(F)F)nc2)sn1)Nc1cn[nH]c(=O)c1C(F)(F)F (stereo not drawn) [Example 251]
> 100 nM | > 3000 nM | – | NC(=O)c1cccc2cn(CCCn3cnc4cc(-c5ncc(C(F)(F)F)cn5)c(F)cc4c3=O)nc12 [Example 252]
< 10 nM | 1000 to 3000 nM | – | CC(CCCn1ccc2cc(-c3ncc(C(F)(F)F)s3)cnc2c1=O)Nc1cn[nH]c(=O)c1C(F)(F)F (stereo not drawn) [Example 253]
> 100 nM | – | – | NC(=O)c1cccc2cn(CCCn3ccc4cc(-c5ncc(C(F)(F)F)cn5)c(F)cc4c3=O)nc12 [Example 254]
< 10 nM | 300 to 1000 nM | – | COC1CCN(C(=O)[C@@H](CCCNC(=O)c2ccc(-c3ncc(C(F)(F)F)s3)cc2)Nc2cn[nH]c(=O)c2C(F)(F)F)CC1 [Example 255]
< 10 nM | 300 to 1000 nM | – | COC1CN(C(=O)[C@@H](CCCNC(=O)c2ccc(-c3ncc(C(F)(F)F)s3)cc2)Nc2cn[nH]c(=O)c2C(F)(F)F)C1 [Example 256]
< 10 nM | < 300 nM | – | Cc1cccc(NC(=O)[C@@H](CCCNC(=O)c2ccc(-c3ncc(C(F)(F)F)s3)cc2)Nc2cn[nH]c(=O)c2C(F)(F)F)n1 [Example 257]
< 10 nM | < 300 nM | – | CC(C)NC(=O)[C@@H](CCCNC(=O)c1ccc(-c2ncc(C(F)(F)F)s2)cc1)Nc1cn[nH]c(=O)c1C(F)(F)F [Example 258]
< 10 nM | < 300 nM | – | CCN(C)C(=O)[C@@H](CCCNC(=O)c1ccc(-c2ncc(C(F)(F)F)s2)cc1)Nc1cn[nH]c(=O)c1C(F)(F)F [Example 259]
10 to 30 nM | 1000 to 3000 nM | – | N#C[C@@H]1CCCN(C(=O)[C@@H](CCCNC(=O)c2ccc(-c3ncc(C(F)(F)F)s3)cc2)Nc2cn[nH]c(=O)c2C(F)(F)F)C1 [Example 260]
30 to 100 nM | 300 to 1000 nM | – | N#CC1CCN(C(=O)C(CCCNC(=O)c2ccc(-c3ncc(C(F)(F)F)s3)cc2)Nc2cn[nH]c(=O)c2C(F)(F)F)C1 (stereo not drawn) [Example 261]
10 to 30 nM | < 300 nM | – | CC[C@@H]1CN(C(=O)[C@@H](CCCNC(=O)c2ccc(-c3ncc(C(F)(F)F)s3)cc2)Nc2cn[nH]c(=O)c2C(F)(F)F)CCO1 [Example 262]
